Entries after “also recorded” stand apart in the source; their conditions may differ.
Experiments:
ACE2 [1] = assay: Rat cornea alkali burn: ACE2 abundance by Jess capillary-based Western Blot; format: in vivo; conditions: rat cornea after alkali burn; eye drops 20 μl/eye, 3 times/day for 14 days; day 14
Text: Sprague-Dawley rats (8-week-old male) were obtained from Charles River Laboratories (Wilmington, MA, USA) and kept at the Animal Care of the Neuroscience Center of Excellence, Louisiana State University Health (LSUH; New Orleans, LA, USA). All animals were handled in compliance with the guidelines of the ARVO Statement for the Use of Animals in Ophthalmic and Vision Research, and the experimental protocol was approved by the Institutional Animal Care and Use Committee (IACUC) at LSUH.
(§1) The rats were anesthetized by intraperitoneal injection of Ketamine (50-100 mg/kg) plus xylazine (5-10 mg/kg). A 4 mm diameter filter paper soaked in 1 N NaOH was placed on the central cornea of the right eye for 45 seconds, and then the eye was thoroughly washed with […] of saline. After injury, the rats were randomly divided into five treatment groups: vehicle; lipoxin A4 (LXA4) from Cayman Chemical (Ann Arbor, MI, USA); R,R Resolvin D6 isomer (RvD6i), R,R neuroprotection D (NPD1), and elovanoid (ELV)-N32. All lipid solutions were prepared at the final concentration of […] using PBS with the minimal contamination of ethanol by evaporating the ethanol and immediately dissolve the lipids in PBS, then vortex well for 2 min. Topical administration (20 μl) was done 3×/day for 14 days. The experiments were double-blinded with the lipid mediators coded during the whole experiments. At the end of the study, when all data was collected, the code was opened.
Briefly, samples were lysed with RIPA buffer containing a protease inhibitor cocktail (Sigma, Cat. P8340). Cell debris was removed after 10 min centrifugation at 16,000×g. Protein concentration was determined by BCA assay (Thermo Fisher Scientific, Cat. 23225) and 1 μg used/reaction. Fluorescent Master Mix was mixed with 40 mM DTT, and the mixture was added to each sample to provide a denaturing and reducing environment. Samples were heated at 95° C./5 min, and 3 μL of each sample were loaded. The 12-230 kDa cartridge (Protein Simple—#SM-W004) was used. Primary antibodies were diluted in antibody diluent 2 buffer (Protein Simple, #042-203) while the working solution of secondary antibodies was provided by the company (Protein Simple, #042-206). Then, the filled plate was spin-down for 10 min at 1,000×g to remove bubbles and plate, and capillaries were loaded into the Jess machine. For data analysis, the area of spectra that matched the molecular weight of the target protein was used. To reduce the coefficient variant, we analyzed the GAPDH for each capillary. The ratio of the targeted protein to GAPDH was used for statistical comparisons. For visualization, the artificial lanes generated from spectra volume was used.

ACE2 [2] = assay: Rat cornea alkali burn: corneal RNA-seq, Ace2 gene expression; format: in vivo; conditions: rat cornea after alkali burn; eye drops 3 times/day for 14 days; RNA-seq day 14
Experimental: as §1
(§2) Injured corneas (n=5/condition) were harvested and homogenized with TRIzol (Thermo Fisher Scientific) on ice with a glass Dounce homogenizer. RNA sequencing was performed as described^14. Briefly, after mRNA extraction and determination of purity, 8 ng of total RNA was reverse transcribed, and total cDNAs were amplified using ISPCR primer, and the library was made with the Nextera XT DNA library preparation kit (Illumina, San Diego, CA, USA). The libraries were pooled with the same molarity and sequenced using the NextSeq 500/550 High Output Kit v2 (75 cycles, Illumina). After demultiplexing, RNA-seq data were aligned to the Rattus Norvegicus reference genome (.ensembl.org/pub/release-98/fasta/rattus_norvegicus/dna/) using the Subread package v2.0.1 alignment function39. The BAM files for sequencing data alignment were counted using featureCounts function of Subread tool^40 using the macOS Catalina. The raw count data were subjected to differential gene expression analysis using DESeq2 package for R^41 with the vehicle group as reference. The adjusted p-values were named as the false discover rate (FDR).

[3] = test system: human corneal epithelial cells (HCEC); assay: HCEC challenged with IFNγ: SASP secretome (β-Gal staining); format: cell-based; conditions: HCEC 24 h after IFN-γ challenge
Cdkn2a (p16INK4a) = assay: HCEC challenged with IFNγ: Cdkn2a gene expression; format: cell-based, human; conditions: IFNγ 100 ng/ml
Text: (§3) All experiments with human corneal epithelial cells were approved by the Institutional Review Board of LSUHNO and conducted in accordance with NIH guidelines. HCEC were kept frozen in the laboratory at passage 2544. Cells were maintained in keratinocyte growth (KGM) medium containing the keratinocyte basal medium (KBM) (Lonza: CC-3101) supplemented with bovine pituitary extract (BPE), hEGF, Insulin, Hydrocortisone and Gentamicin Sulfate-Amphotericin (GA-1000) (Lonza, Cat. CC-4131). For all experiments, cells were seeded at 30,000 cells/cm2.
(§4) For screening the stimulation of receptor ACE2 by cytokines, the HCEC were cultured with KGM until 50-60% confluence. Then, changed to KBM containing IL-1β, -2, -6 and 8, IFN-α, -ε, and -γ or TNFα at 1, 10 or 100 ng/ml. The cells were harvested after 6 hours and analyze for the gene expression of Ace2. In other experiments, HCEC were stimulated with IFNγ, and thereafter, lipid mediators were added. For the Alexa 594-conjugated RBD binding, IFNγ was used as a cytokine trigger. At 12 hours after cytokine exposure and lipid mediator treatments, […] of labeled RBD was added to the medium. The evaluation of RBD binding was conducted 24 hours after.
Quantitative PCR was performed with the Biomark HD system (Fluidigm, San Francisco, CA, USA). Briefly, 200 ng of RNA was reverse-transcribed using iScript Reverse Transcription Supermix (Bio-Rad), and the cDNA was pre-amplified using the PreAmp Master Mix (PN 100-5580; Fluidigm). The cDNA was then subjected to Exonuclease I treatment and diluted 5 times in TE Buffer. The qPCR reaction mixture and primer reaction mixture were made and loaded into the Biomark 96.96 IFC™ (Integrated Fluidic Circuit). The enzyme reaction was mixed using Juno™ Controller (Fluidigm) and run using the cycling program of (i) 70° C. for 40 minutes followed by 60° C. for 30 seconds, (ii) hot start for 1 minute at 95° C., (iii) 30 cycles of denaturation at 96° C. for 5 seconds, and annealing at 60° C. for 20 seconds, and (iv) melting curves between 60° C. and 95° C. with 1° C. increments/3 seconds. The Ct value of target genes was normalized to the house-keeping genes Gapdh, Hprt1, and Tfrc before normalized to the vehicle group. Relative fold changes from the ΔΔCT calculation was used to make the graph.

ACE2 [4] = assay: HCEC challenged with IFNγ: Ace2 gene expression; format: cell-based, human; conditions: IFNγ 100 ng/ml
Text: as §3, §4
Quantitative PCR was performed with the Biomark HD system (Fluidigm, San Francisco, CA, USA). […]

injured rat cornea = assay: Rat cornea alkali burn: corneal RNA-seq, cytokine storm, NFkB/inflammation, senescence, integrin and protease genes; format: in vivo; conditions: rat cornea, RNA-seq 14 days after injury
Experimental: as §1, §2

Alexa 594-RBD [5] = assay: HCEC challenged with IFNγ: Alexa 594-RBD binding (unbiased imaging, Imaris); format: cell-based, human; conditions: IFNγ 100 ng/ml and lipid mediators 200 nM for 12 h, images 24 h after RBD
Experimental: as §4
Twenty-four hours after Alexa 594-RBD was added to the HCEC, the cells were washed with PBS (3×/5 min) and fixed with 4% paraformaldehyde for 30 minutes at RT. The HCEC were washed 2× with PBS and stained with Hoechst 33342 Solution (ThermoFisher Scientific, Cat. 62249) for 30 minutes at RT. Next, the HCEC were washed 2× with PBS before imaging. For unbiased data collection, 7 designated areas were defined in each well (FIG. 63) and captured with an Olympus FV3000 confocal laser scanning microscopy under “Multi Area Time Lapse” (MATL) mode. All images were acquired with the same parameters and Z-section range, converted and inputted in the Imaris software version 9.5.1. The threshold for the control images was defined by the HCEC without Alexa 594-conjugated RBD of S protein and using it as a threshold filter for the Imaris batch image processing function. The sum of total intensity for each image was used to evaluate the binding efficiency.

Alexa 594-RBD [6] = format: in vivo; conditions: rat cornea after alkali burn; 14 days treatment; Alexa 594-RBD 1 μg/eye, 3 times at day 15, examined a day later
[7] = test system: receptor-binding domain (RBD) of the SARS-CoV-2 spike; format: cell-based, human
ACE-2 receptor = assay: ACE-2 protein abundance by Jess capillary western in human alveoli in culture; format: cell-based; conditions: effect dependent on addition of IL-1b
Text: The Simple Protein platform Jess allows running a protein mixture in a capillary system that also serves as a probing matrix for the antibodies. This platform obviates the need to transfer the size-separated proteins onto a membrane with the consequent loss of sample. The sample amount that can be run in Jess is several times smaller than that required for Western blots. Therefore, high throughput is facilitated in cell cultures. The antibodies to this protein have been validated in our laboratory.
c.1.b. Protein abundance using Jess technology. The Simple Protein platform Jess allows running a protein mixture in a capillary electrophoretic system as a probing matrix for the antibodies (we refer to western blot as “Jess WB” here). This platform obviates the need to transfer the size-separated proteins onto a membrane with a potential loss of sample. The sample size run in Jess is several times smaller than that for classical WB. (400 ng protein/capillary column vs. 10 or more μg for classical WB). The proteins we assess will include ACE2, Furin, ADAM17, DPP4, TMPRSS2, protein surfactant D, and Cathepsin L. In addition, senescence and SASP proteins will also be analyzed. […]
ACE2 Protein abundance using Jess technology. […] Soluble protein concentration was determined by BCA assay (Thermo Fisher Scientific, Cat. 23225) and 0.4 μg used/reaction. […]

SMILES	ACE2 abundance (protein, normalized to GAPDH) (ACE2 [1])	Ace2 gene expression levels (ACE2 [2])	senescence programming genes and SASP secretome activation (β-Gal) [3]	Cdkn2a activation (Cdkn2a (p16INK4a))	IFNγ-triggered Ace2 activation (ACE2 [4])	51 injury-upregulated genes (cytokines, SASP, NFkB inflammatory) (injured rat cornea)	Il6 and Vegfa expression (injured rat cornea)	integrin gene expression (Itga5 and Itgb 1) (injured rat cornea)	transcriptomic profile in PCA plot relative to control cornea (injured rat cornea)	IFNγ-stimulated Alexa 594-RBD binding (Alexa 594-RBD [5])	binding of Alexa 594-RBD to injured cornea (Alexa 594-RBD [6])	RBD protein internalization (RBD located below the membrane line) [7]	expression of the ACE-2 receptor (protein abundance, Jess) (ACE-2 receptor)
CC/C=C\C[C@@H](O)/C=C/C=C\C/C=C\C/C=C\C=C\[C@H](O)CCC(=O)O [RvD6i]	decrease	decrease	blocked; also recorded: suppressed	decrease	markedly attenuated; also recorded: suppressed	most are inhibited	reduced	significantly decreased; also recorded: decrease	nearest to the normal cornea	attenuated	decrease; also recorded: counteracted		
CC/C=C\CC(O)\C=C/C=C/C=C/C(O)C/C=C\C/C=C\CCCCCCCCCCCCCCC(=O)O [ELV-N34, (16Z,19Z,22R,23E,25E,27Z,29S,31Z)-22,29-dihydroxytetra-triaconta-16,19,23,25,27,31-hexaenoic acid]												decrease	downregulate
